pIC50: −log10 of the molar value. The source made the active and inactive calls. The rule behind the calls is not given here.
Experiments:
[1] = target: T1, Bifunctional 3'-5' exonuclease/ATP-dependent helicase WRN (Homo sapiens, UniProt Q14191); experiment: Inhibition of WRN (unknown origin)
[2] = target: T1, Bifunctional 3'-5' exonuclease/ATP-dependent helicase WRN; experiment: Inhibition of recombinant human WRN unwinding activity by immunosorbent-based helicase unwinding assay
[3] = target: T1, Bifunctional 3'-5' exonuclease/ATP-dependent helicase WRN; experiment: Inhibition of WRN (unknown origin) ATPase activity
[4] = target: RecQ-like DNA helicase BLM (Homo sapiens, UniProt P54132); experiment: Inhibition of BLM (unknown origin) ATPase activity
[5] = Inhibition of HSP90 (unknown origin) ATPase activity; parameters: species or system Homo sapiens
[6] = target: T2, Eukaryotic initiation factor 4A-I (Homo sapiens, UniProt P60842); experiment: Inhibition of eIF4A (unknown origin) ATPase activity within 200 uM
[7] = test system: Microsatellite instability cancer cell; experiment: Cytotoxicity against Microsatellite instability cancer cell (unknown origin); format: functional, cell-based
[8] = target: T2, Eukaryotic initiation factor 4A-I; experiment: Inhibition of eIF4A (unknown origin) ATPase activity
[9] = species on record: Homo sapiens; experiment: Inhibition of HSP90 (unknown origin) ATPase activity at <200 uM
[10] = target: T2, Eukaryotic initiation factor 4A-I; experiment: Inhibition of eIF4A (unknown origin) ATPase activity at <200 uM
[11] = species on record: Homo sapiens; experiment: Inhibition of HSP90 (unknown origin) ATPase activity within 200 uM

T1 sequence (Q14191 whole entry): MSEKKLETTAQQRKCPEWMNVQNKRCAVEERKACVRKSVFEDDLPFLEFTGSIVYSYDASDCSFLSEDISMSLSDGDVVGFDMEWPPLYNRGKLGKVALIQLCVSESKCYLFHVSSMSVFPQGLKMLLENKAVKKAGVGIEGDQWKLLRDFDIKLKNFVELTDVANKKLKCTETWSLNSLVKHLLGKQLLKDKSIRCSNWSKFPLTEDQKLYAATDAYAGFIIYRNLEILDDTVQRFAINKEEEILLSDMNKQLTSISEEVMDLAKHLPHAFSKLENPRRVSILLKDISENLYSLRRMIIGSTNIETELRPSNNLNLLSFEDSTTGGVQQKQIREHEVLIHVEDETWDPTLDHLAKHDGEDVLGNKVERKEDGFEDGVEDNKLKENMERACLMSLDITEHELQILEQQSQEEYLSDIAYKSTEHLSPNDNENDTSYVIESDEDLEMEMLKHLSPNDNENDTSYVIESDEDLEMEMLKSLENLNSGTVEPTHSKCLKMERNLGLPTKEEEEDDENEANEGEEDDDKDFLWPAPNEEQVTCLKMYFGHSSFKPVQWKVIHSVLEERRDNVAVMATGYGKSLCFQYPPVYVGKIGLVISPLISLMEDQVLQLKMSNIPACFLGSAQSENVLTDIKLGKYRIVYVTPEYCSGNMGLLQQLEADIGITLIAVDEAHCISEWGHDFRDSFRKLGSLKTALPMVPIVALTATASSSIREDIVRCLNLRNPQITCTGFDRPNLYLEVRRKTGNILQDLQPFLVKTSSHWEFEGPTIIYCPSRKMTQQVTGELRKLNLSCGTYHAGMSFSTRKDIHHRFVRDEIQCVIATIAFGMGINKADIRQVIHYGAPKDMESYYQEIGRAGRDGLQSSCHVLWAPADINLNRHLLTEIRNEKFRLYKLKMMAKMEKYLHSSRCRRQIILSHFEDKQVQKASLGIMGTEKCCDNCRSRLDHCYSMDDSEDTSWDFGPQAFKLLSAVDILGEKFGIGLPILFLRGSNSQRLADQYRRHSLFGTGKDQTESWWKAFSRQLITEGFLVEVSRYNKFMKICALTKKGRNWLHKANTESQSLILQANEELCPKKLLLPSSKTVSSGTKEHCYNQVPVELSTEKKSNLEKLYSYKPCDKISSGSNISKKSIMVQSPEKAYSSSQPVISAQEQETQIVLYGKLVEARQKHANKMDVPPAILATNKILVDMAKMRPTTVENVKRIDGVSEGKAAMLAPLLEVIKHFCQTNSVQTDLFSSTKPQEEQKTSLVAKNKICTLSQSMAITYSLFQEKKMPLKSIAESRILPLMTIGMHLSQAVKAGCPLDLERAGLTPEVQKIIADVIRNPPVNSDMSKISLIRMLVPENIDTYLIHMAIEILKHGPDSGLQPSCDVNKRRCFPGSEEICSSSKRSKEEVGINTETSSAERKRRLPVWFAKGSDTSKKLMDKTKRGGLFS
T2 sequence (P60842 whole entry): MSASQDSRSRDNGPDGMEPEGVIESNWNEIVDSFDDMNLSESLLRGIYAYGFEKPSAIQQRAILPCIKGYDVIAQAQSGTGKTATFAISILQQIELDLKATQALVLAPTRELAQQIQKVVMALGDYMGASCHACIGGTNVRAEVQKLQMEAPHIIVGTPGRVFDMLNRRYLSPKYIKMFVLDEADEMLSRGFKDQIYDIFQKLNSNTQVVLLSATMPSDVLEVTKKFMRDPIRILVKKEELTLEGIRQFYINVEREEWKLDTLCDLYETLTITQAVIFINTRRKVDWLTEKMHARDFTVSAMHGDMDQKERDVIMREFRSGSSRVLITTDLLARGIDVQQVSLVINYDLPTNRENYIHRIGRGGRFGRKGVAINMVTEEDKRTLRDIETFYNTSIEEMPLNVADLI
RecQ-like DNA helicase BLM, sequence (P54132 whole entry): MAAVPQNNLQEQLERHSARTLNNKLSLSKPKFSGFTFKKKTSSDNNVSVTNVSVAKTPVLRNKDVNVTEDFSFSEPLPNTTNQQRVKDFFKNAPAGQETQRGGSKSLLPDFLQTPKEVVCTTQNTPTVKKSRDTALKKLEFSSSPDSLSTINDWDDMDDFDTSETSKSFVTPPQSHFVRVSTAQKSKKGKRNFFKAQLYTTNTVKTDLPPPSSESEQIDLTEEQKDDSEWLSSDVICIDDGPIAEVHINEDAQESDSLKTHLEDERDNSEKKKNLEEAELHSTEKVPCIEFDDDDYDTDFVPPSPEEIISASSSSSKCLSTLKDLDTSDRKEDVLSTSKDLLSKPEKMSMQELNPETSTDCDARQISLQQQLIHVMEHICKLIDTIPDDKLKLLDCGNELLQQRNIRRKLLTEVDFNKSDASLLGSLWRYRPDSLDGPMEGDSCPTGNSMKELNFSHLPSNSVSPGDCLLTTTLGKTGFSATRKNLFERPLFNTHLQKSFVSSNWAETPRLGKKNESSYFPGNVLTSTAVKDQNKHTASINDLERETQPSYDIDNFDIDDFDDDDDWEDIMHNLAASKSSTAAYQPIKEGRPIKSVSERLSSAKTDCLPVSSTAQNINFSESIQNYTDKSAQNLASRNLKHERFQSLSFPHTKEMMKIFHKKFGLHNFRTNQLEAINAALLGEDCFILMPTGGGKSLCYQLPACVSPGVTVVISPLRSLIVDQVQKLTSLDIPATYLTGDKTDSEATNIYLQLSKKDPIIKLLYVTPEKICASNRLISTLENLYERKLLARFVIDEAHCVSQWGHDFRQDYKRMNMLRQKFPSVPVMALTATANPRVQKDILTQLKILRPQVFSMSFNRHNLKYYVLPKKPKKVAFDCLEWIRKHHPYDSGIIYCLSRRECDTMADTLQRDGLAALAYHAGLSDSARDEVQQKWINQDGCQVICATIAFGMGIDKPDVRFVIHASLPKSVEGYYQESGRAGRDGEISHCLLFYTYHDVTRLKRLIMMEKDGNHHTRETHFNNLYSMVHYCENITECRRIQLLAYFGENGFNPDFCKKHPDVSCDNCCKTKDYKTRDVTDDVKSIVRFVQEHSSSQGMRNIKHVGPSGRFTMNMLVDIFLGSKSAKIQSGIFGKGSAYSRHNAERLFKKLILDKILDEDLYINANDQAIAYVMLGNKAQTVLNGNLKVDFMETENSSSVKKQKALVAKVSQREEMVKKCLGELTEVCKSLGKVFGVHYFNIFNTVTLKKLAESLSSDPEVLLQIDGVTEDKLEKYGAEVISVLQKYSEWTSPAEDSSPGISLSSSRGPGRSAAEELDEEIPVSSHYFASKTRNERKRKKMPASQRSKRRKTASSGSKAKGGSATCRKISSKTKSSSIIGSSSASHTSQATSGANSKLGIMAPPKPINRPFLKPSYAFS

| SMILES | pIC50 [1] | pIC50 [2] | pIC50 [3] | pIC50 [4] | pIC50 [5] | inhibition [6] | pIC50 [8] | inhibition [9] | inhibition [10] | inhibition [11] | Activity [7] |
| --- | --- | --- | --- | --- | --- | --- | --- | --- | --- | --- | --- |
| COc1ccc2nc(O)c(-c3noc(-c4ccccc4)n3)cc2c1 | 5.64 | – | – | – | – | – | – | – | – | – | – |
| CCC(=O)OCN1C(=O)C=CC1=O | – | – | 4.98 | 5.80 | – | – | < 3.70 | – | Active | inactive | – |
| CC(C)(CN1C(=O)C(Cl)=C(Cl)C1=O)CN1C(=O)C(Cl)=C(Cl)C1=O | 6.64 | – | 4.05 | 4.95 | – | inactive | – | – | – | inactive | – |

Continued, in another order:

| pIC50 [1] | pIC50 [2] | pIC50 [3] | pIC50 [4] | pIC50 [5] | inhibition [6] | pIC50 [8] | inhibition [9] | inhibition [10] | inhibition [11] | SMILES | Activity [7] |
| --- | --- | --- | --- | --- | --- | --- | --- | --- | --- | --- | --- |
| – | 5.01 | 4.80 | 4.58 | 4.32 | inactive | – | – | – | – | Cc1ccc(NC(=O)CN2C(=O)N/C(=C/c3ccccc3OCc3cccc(C(=O)O)c3)C2=O)cc1 | inactive |
| – | 6.70 | 5.30 | 5.48 | < 3.70 | – | < 3.70 | Active | Active | – | O=C1/C(=C2\Nc3ccc(S(=O)(=O)O)cc3C2=O)Nc2ccc(S(=O)(=O)O)cc21 [INDIGOTINDISULFONATE] | – |
| 4.89 | – | – | – | – | – | – | – | – | – | COc1ccc2nc(O)c(-c3noc(-c4ccc(F)cc4)n3)cc2c1 | – |
